Laboratory results taken from patent publication US20250129092A1, “COMPOUNDS USEFUL IN MODULATION OF AHR SIGNALLING” (JAGUAHR THERAPEUTICS PTE LTD, priority 2021, published 2025).
In brackets after ≈: the same amount, converted by molar mass. Blank lines part the entries; values can stand above or below the compound they belong to.

Columns and labels:
CYP 1A2 = target: T1, CYP 1A2 (Homo sapiens, UniProt P05177); assay: CYP 1A2; type: in vitro ADME
T1 sequence (P05177 1-516): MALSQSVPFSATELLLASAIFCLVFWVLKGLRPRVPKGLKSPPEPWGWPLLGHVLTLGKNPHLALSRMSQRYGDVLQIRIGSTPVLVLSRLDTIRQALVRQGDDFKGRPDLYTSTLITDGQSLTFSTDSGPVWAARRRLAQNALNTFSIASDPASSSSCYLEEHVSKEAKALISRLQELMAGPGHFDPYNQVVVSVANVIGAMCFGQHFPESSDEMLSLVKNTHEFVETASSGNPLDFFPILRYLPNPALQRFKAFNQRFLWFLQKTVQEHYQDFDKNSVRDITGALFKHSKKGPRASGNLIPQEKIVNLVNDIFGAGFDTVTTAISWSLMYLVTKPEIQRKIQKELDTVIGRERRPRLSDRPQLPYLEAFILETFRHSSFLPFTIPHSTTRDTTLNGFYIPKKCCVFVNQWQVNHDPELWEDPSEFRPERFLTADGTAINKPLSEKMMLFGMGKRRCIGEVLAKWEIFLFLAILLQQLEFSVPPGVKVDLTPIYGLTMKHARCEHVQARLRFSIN

CYP 2D6 = CYP 2D6 (Homo sapiens, UniProt P10635); assay: CYP 2D6; type: in vitro ADME
Chain of CYP 2D6 (P10635 whole entry): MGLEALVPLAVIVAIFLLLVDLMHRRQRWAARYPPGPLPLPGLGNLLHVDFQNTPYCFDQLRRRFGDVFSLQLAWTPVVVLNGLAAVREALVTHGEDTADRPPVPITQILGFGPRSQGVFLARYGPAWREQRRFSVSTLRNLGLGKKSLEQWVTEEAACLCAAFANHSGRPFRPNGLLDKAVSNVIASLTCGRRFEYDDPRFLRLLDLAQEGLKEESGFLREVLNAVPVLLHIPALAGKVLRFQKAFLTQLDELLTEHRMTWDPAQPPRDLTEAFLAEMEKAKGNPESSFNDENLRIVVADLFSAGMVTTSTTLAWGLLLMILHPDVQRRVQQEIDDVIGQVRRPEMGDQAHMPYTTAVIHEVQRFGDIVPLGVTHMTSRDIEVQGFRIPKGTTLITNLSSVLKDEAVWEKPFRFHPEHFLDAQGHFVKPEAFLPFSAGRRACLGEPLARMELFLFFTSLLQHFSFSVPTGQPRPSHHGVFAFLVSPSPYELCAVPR

hERG = hERG (Homo sapiens, UniProt Q12809); assay: hERG
Chain of hERG (Q12809 whole entry): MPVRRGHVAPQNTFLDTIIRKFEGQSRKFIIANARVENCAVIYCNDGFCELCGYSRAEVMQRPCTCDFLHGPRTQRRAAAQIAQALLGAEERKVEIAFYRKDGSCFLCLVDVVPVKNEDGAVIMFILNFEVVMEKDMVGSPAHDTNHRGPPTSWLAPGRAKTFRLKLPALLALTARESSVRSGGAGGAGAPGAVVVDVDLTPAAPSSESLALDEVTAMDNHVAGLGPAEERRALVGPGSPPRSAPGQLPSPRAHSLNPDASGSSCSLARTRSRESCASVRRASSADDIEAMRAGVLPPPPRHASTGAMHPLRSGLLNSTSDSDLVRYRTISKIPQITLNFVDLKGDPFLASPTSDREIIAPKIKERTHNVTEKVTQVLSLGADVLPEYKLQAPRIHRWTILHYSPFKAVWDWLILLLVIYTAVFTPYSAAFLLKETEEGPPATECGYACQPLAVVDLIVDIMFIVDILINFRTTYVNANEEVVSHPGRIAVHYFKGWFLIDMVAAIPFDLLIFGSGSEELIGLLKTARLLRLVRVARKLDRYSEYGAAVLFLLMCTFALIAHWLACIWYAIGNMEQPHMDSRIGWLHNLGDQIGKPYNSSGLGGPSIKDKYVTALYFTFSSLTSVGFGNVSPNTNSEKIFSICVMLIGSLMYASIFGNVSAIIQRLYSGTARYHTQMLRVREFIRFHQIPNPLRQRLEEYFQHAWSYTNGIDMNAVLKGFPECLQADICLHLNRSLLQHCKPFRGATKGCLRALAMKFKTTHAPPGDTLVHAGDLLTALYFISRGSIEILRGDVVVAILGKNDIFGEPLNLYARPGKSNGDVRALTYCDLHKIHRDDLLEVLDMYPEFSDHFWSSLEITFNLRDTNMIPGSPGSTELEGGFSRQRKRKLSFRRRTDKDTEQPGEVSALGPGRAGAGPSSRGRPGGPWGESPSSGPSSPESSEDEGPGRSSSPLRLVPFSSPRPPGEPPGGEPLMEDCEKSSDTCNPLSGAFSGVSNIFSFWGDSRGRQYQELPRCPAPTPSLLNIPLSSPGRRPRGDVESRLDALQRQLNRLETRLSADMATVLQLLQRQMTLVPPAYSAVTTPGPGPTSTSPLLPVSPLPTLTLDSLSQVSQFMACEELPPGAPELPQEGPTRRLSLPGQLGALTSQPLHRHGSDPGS

CYP 2C9 = CYP 2C9 (Homo sapiens, UniProt P11712); assay: CYP 2C9; type: in vitro ADME
Chain of CYP 2C9 (P11712 whole entry): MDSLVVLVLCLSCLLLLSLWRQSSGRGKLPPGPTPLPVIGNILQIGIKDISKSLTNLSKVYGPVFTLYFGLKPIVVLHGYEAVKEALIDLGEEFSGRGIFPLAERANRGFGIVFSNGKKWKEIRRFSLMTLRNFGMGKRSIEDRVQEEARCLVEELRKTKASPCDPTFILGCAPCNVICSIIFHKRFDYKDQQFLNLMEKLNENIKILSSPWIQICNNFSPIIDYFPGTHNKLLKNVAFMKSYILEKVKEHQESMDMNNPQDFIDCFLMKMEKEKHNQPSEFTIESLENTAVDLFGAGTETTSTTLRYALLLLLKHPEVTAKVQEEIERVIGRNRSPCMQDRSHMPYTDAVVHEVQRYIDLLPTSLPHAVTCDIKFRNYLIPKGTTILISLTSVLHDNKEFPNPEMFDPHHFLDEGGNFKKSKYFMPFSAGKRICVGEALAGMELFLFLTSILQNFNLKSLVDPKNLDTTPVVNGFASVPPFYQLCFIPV

Hepatocytes Clint (m) = type: in vitro ADME; conditions: mouse
CYP 2C19 = CYP 2C19 (Homo sapiens, UniProt P33261); assay: CYP 2C19; type: in vitro ADME
Chain of CYP 2C19 (P33261 whole entry): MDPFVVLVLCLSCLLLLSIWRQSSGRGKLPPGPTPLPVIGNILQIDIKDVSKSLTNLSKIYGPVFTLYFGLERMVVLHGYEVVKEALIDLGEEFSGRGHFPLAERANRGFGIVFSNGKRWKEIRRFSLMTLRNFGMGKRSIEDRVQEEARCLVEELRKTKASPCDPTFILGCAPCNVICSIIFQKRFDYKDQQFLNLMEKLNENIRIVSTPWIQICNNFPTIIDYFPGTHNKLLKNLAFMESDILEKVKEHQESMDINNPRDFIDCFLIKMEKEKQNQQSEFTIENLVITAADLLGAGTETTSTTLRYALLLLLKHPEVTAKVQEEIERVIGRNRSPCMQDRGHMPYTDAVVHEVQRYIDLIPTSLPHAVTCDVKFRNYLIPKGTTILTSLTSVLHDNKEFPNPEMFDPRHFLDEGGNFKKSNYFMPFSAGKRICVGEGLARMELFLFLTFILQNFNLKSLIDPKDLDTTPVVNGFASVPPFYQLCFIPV

Kinetic solubility = type: physicochemical; conditions: kinetic from dmso stock
[1] = Caco-2 permeability / efflux; type: in vitro ADME; conditions: human
AhR [2] = target: T2, AhR (Homo sapiens, UniProt P35869); assay: AhR antagonism in U937 cells (Promega P450-Glo assay); type: cell-based; parameters: endogenous in cells; host or cells: U937 cells; conditions: CYP1A1 activity readout (Luciferin-CEE), head names VAF347, average, read-out: U937 Antagonist pIC50-VAF347: av. pIC50 (converted)
T2 sequence (P35869 11-848): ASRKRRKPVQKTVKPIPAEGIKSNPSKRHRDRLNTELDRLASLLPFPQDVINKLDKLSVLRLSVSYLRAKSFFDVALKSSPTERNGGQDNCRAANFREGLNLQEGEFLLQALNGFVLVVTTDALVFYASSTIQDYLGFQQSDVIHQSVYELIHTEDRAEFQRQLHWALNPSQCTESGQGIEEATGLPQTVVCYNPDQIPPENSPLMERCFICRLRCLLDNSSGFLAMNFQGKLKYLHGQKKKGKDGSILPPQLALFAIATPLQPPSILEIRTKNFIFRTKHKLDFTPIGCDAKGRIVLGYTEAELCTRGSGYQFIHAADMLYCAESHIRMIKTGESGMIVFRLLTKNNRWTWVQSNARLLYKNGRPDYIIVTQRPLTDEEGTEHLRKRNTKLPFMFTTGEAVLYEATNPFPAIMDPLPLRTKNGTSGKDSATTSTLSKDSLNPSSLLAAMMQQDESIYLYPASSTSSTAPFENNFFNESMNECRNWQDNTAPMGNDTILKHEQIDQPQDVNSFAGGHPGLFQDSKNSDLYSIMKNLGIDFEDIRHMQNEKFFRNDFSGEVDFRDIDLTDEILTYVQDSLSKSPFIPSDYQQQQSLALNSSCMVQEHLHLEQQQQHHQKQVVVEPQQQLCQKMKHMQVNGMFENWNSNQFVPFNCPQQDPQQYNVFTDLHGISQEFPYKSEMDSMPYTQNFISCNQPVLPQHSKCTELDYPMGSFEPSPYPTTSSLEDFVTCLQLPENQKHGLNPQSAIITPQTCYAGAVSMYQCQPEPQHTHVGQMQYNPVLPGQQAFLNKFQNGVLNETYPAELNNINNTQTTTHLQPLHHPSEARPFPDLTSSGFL
How it was run: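 Human U937 histiocytic lymphoma cells were seeded in Ultraculture serum free media (Lonza) at 100,000 cells per well in round bottom 96 well plates and exposed to seven test compound concentrations for 24 hrs at 37° C., ≥85% humidity, 5% CO2. AhR antagonism was measured as CYP1A1 activity. After removing supernatant, Luciferin-CEE ([Final] 83 μM) was added for 3 hrs. Detection reagent stopped the reaction, and luminescence was read 20 minutes later.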

ChromLogD = type: physicochemical
AhR [3] = target: T2, AhR; assay: AhR antagonism in human PBMCs - inhibition of IL-22 release; type: cell-based; parameters: endogenous in cells; conditions: human PBMCs activated with CD3/CD28 agonist mixture, 72 hrs, IL-22 ELISA; average; read-out: hPBMC Inhibition of CD3/CD28 induced IL-22 release: av. pIC50 (converted)
How it was run: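 Human PBMCs (1×10^6 cells/ml, 100,000 per well) activated with CD3/CD28 agonist (TransAct); seven compound concentrations added 1 h later (0.2% DMSO final). After 72 h at 37 °C, IL-22 in medium measured by ELISA.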

Hepatocytes Clint (Hu) = type: in vitro ADME; conditions: human
CYP 3A4 = CYP 3A4 (Homo sapiens, UniProt P08684); assay: CYP 3A4; type: in vitro ADME
Chain of CYP 3A4 (P08684 whole entry, species assumed): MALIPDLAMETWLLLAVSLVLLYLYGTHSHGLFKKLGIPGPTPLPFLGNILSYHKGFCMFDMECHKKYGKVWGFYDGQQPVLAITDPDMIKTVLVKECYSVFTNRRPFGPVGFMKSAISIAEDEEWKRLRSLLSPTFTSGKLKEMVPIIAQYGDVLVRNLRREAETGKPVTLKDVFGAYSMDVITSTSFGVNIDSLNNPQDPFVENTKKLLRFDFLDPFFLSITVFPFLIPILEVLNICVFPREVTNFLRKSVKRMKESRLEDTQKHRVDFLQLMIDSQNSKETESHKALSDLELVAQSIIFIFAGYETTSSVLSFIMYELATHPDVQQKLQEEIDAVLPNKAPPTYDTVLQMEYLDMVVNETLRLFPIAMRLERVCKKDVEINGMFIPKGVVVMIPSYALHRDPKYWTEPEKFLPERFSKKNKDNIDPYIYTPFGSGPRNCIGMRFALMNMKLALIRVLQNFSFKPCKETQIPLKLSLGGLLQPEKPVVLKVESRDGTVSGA

SMILES: O=c1[nH]cccc1-c1nc2c(c(OCCc3c[nH]c4ccccc34)n1)OCCN2 [Example 25, 3-(4-(2-(1H-indol-3-yl)ethoxy)-7,8-dihydro-6H-pyrimido[5,4-b][1,4]oxazin-2-yl)pyridin-2(1H)-one]
IC50 (CYP 1A2): 45.3 µM | IC50 (CYP 2D6): 50 µM | IC50 (hERG): 7.3 µM | IC50 (CYP 2C9): 4.7 µM | hepatocyte CLint (Hepatocytes Clint (m)): 115 µL/min/1e6 cells | IC50 (CYP 2C19): 43.4 µM | solubility kinetic (Kinetic solubility): 119 µM (≈ 46.3 µg/mL) | efflux ratio [1]: 4 | Papp A→B ([1]; A to B): 7.16 ×10⁻⁶ cm/s | IC50 (AhR [2]): 2.69 nM | chromatographic logD (ChromLogD): 2.39 | IC50 (AhR [3]): 1.7 nM | hepatocyte CLint (Hepatocytes Clint (Hu)): 7.1 µL/min/1e6 cells | IC50 (CYP 3A4): 7.2 µM | fold difference (3A4/U937) (CYP 3A4; CYP 3A4 versus U937): 1986

SMILES: O=c1[nH]cccc1-c1nc2c(c(N[C@@H]3CCc4[nH]c5ccccc5c4C3)n1)OCCN2 [Example 63, 3-[4-[[(3R)-2,3,4,9-tetrahydro-1H-carbazol-3-yl]amino]-7,8-dihydro-6H-pyrimido[5,4-b][1,4]oxazin-2-yl]-1H-pyridin-2-one]
IC50 (AhR [2]): 93.3 nM | IC50 (AhR [3]): 158 nM

SMILES: COc1ncccc1-c1nc2c(c(NCCc3c[nH]c4ccccc34)n1)OCCN2 [Example 64, N-[2-(1H-indol-3-yl)ethyl]-2-(2-methoxy-3-pyridyl)-7,8-dihydro-6H-pyrimido[5,4-b][1,4]oxazin-4-amine]
IC50 (AhR [2]): 61.7 nM | IC50 (AhR [3]): 145 nM

Now from value to compound:

IC50 (AhR [2]): 1.02 nM | IC50 (AhR [3]): 0.324 nM
SMILES: O=c1[nH]cc(F)cc1-c1nc2c(c(NCCc3c[nH]c4ccccc34)n1)OCCN2 [Example 66, 3-(4-((2-(1H-indol-3-yl)ethyl)amino)-7,8-dihydro-6H-pyrimido[5,4-b][1,4]oxazin-2-yl)-5-fluoropyridin-2-ol]

IC50 (AhR [2]): 1.58 nM | IC50 (AhR [3]): 0.646 nM
SMILES: O=c1[nH]cc(F)cc1-c1nc2c(c(NCCc3c[nH]c4cc(F)ccc34)n1)OCCN2 [Example 70, 5-fluoro-3-(4-((2-(6-fluoro-1H-indol-3-yl)ethyl)amino)-7,8-dihydro-6H-pyrimido[5,4-b][1,4]oxazin-2-yl)pyridin-2 (1H)-one]

IC50 (AhR [2]): 126 nM | IC50 (AhR [3]): 69.2 nM
SMILES: O=c1[nH]cc(F)cc1-c1nc2c(c(N[C@@H]3CCc4[nH]c5ccccc5c4C3)n1)OCCN2 [Example 71, (R)-5-fluoro-3-(4-((2,3,4,9-tetrahydro-1H-carbazol-3-yl)amino)-7,8-dihydro-6H-pyrimido[5,4-b][1,4]oxazin-2-yl)pyridin-2(1H)-one]
